Laboratory results reported in publication PMC12415923.

Assay: Two-fold Williamson etherification: BINOL bis(chloroethoxyethyl ether) (Me/H/iPr-6_2) + BINOL bisphenol (Me/H/iPr-2), 1:1, Cs2CO3 (3.2 equiv); ring closure = phenoxide O-alkylation by alkyl chloride
Conditions: the molecule shown is the open-chain precursor; 42-membered ring; MeCN; 9.0 mM; 85.0 °C; 6.0 h

Row | Compound | ring closure, isolated yield [%]
1 | COCOc1c(-c2cc(C(C)C)c(O)c(C(C)C)c2)cc2ccccc2c1-c1c(OCOC)c(-c2cc(C(C)C)c(OCCOCCOc3c(C(C)C)cc(-c4cc5ccccc5c(-c5c(OCOC)c(-c6cc(C(C)C)c(OCCOCCCl)c(C(C)C)c6)cc6ccccc56)c4OCOC)cc3C(C)C)c(C(C)C)c2)cc2ccccc12 [iPr-M2_2] | 76.5
2 | COCOc1c(-c2ccc(O)cc2)cc2ccccc2c1-c1c(OCOC)c(-c2ccc(OCCOCCOc3ccc(-c4cc5ccccc5c(-c5c(OCOC)c(-c6ccc(OCCOCCCl)cc6)cc6ccccc56)c4OCOC)cc3)cc2)cc2ccccc12 [H-M2_2] | 77.8
3 | COCOc1c(-c2ccc(OCCOCCCl)cc2)cc2ccccc2c1-c1c(OCOC)c(-c2ccc(OCCOCCOc3c(C(C)C)cc(-c4cc5ccccc5c(-c5c(OCOC)c(-c6cc(C(C)C)c(O)c(C(C)C)c6)cc6ccccc56)c4OCOC)cc3C(C)C)cc2)cc2ccccc12 [(S,S)-HiPr-M2_2] | 72.7
4 | COCOc1c(-c2cc(C)c(O)c(C)c2)cc2ccccc2c1-c1c(OCOC)c(-c2cc(C)c(OCCOCCOc3c(C)cc(-c4cc5ccccc5c(-c5c(OCOC)c(-c6cc(C)c(OCCOCCCl)c(C)c6)cc6ccccc56)c4OCOC)cc3C)c(C)c2)cc2ccccc12 [Me-M2_2] | 59.4
5 | COCOc1c(-c2ccc(OCCOCCCl)cc2)cc2ccccc2c1-c1c(OCOC)c(-c2ccc(OCCOCCOc3c(C(C)C)cc(-c4cc5ccccc5c(-c5c(OCOC)c(-c6cc(C(C)C)c(O)c(C(C)C)c6)cc6ccccc56)c4OCOC)cc3C(C)C)cc2)cc2ccccc12 [(R,S)-HiPr-M2_2 ((R)-H unit, (S)-iPr unit)] | 48.9

Assay: Two-fold Williamson etherification: 3,3'-bis(4-hydroxyaryl)-BINOL-MOM diol (Me/H/iPr-2) + oligoethylene glycol bistosylate (1 equiv), Cs2CO3 (ca. 2-2.5 equiv); ring closure = phenoxide O-alkylation by tosylate
Conditions: the molecule shown is the open-chain precursor; 30-membered ring; MeCN; 1.0 mM; 85.0 °C

Row | Compound | ring closure, isolated yield [%]
6 | COCOc1c(-c2ccc(O)cc2)cc2ccccc2c1-c1c(OCOC)c(-c2ccc(OCCOCCOCCOCCOCCOS(=O)(=O)c3ccc(C)cc3)cc2)cc2ccccc12 [H-M1_5] | 11
7 | COCOc1c(-c2cc(C(C)C)c(O)c(C(C)C)c2)cc2ccccc2c1-c1c(OCOC)c(-c2cc(C(C)C)c(OCCOCCOCCOCCOCCOS(=O)(=O)c3ccc(C)cc3)c(C(C)C)c2)cc2ccccc12 [iPr-M1_5] | 19.6
8 | COCOc1c(-c2cc(C)c(O)c(C)c2)cc2ccccc2c1-c1c(OCOC)c(-c2cc(C)c(OCCOCCOCCOCCOCCOS(=O)(=O)c3ccc(C)cc3)c(C)c2)cc2ccccc12 [Me-M1_5] | 21.1

Same assay, conditions: the molecule shown is the open-chain precursor; 33-membered ring; MeCN; 1.0 mM; 85.0 °C

Row | Compound | ring closure, isolated yield [%]
9 | COCOc1c(-c2cc(C(C)C)c(O)c(C(C)C)c2)cc2ccccc2c1-c1c(OCOC)c(-c2cc(C(C)C)c(OCCOCCOCCOCCOCCOCCOS(=O)(=O)c3ccc(C)cc3)c(C(C)C)c2)cc2ccccc12 [iPr-M1_6] | 41.2
10 | COCOc1c(-c2cc(C)c(O)c(C)c2)cc2ccccc2c1-c1c(OCOC)c(-c2cc(C)c(OCCOCCOCCOCCOCCOCCOS(=O)(=O)c3ccc(C)cc3)c(C)c2)cc2ccccc12 [Me-M1_6] | 53.7
11 | COCOc1c(-c2ccc(O)cc2)cc2ccccc2c1-c1c(OCOC)c(-c2ccc(OCCOCCOCCOCCOCCOCCOS(=O)(=O)c3ccc(C)cc3)cc2)cc2ccccc12 [H-M1_6] | 29.7

Same assay, conditions: the molecule shown is the open-chain precursor; 36-membered ring; MeCN; 1.0 mM; 85.0 °C

Row | Compound | ring closure, isolated yield [%]
12 | COCOc1c(-c2cc(C(C)C)c(O)c(C(C)C)c2)cc2ccccc2c1-c1c(OCOC)c(-c2cc(C(C)C)c(OCCOCCOCCOCCOCCOCCOCCOS(=O)(=O)c3ccc(C)cc3)c(C(C)C)c2)cc2ccccc12 [iPr-M1_7] | 45.5
13 | COCOc1c(-c2cc(C)c(O)c(C)c2)cc2ccccc2c1-c1c(OCOC)c(-c2cc(C)c(OCCOCCOCCOCCOCCOCCOCCOS(=O)(=O)c3ccc(C)cc3)c(C)c2)cc2ccccc12 [Me-M1_7] | 75
14 | COCOc1c(-c2ccc(O)cc2)cc2ccccc2c1-c1c(OCOC)c(-c2ccc(OCCOCCOCCOCCOCCOCCOCCOS(=O)(=O)c3ccc(C)cc3)cc2)cc2ccccc12 [H-M1_7] | 32.1

Same assay, conditions: the molecule shown is the open-chain precursor; 39-membered ring; MeCN; 1.0 mM; 85.0 °C

Row | Compound | ring closure, isolated yield [%]
15 | COCOc1c(-c2cc(C(C)C)c(O)c(C(C)C)c2)cc2ccccc2c1-c1c(OCOC)c(-c2cc(C(C)C)c(OCCOCCOCCOCCOCCOCCOCCOCCOS(=O)(=O)c3ccc(C)cc3)c(C(C)C)c2)cc2ccccc12 [iPr-M1_8] | 53.3
16 | COCOc1c(-c2ccc(O)cc2)cc2ccccc2c1-c1c(OCOC)c(-c2ccc(OCCOCCOCCOCCOCCOCCOCCOCCOS(=O)(=O)c3ccc(C)cc3)cc2)cc2ccccc12 [H-M1_8] | 40.3
17 | COCOc1c(-c2cc(C)c(O)c(C)c2)cc2ccccc2c1-c1c(OCOC)c(-c2cc(C)c(OCCOCCOCCOCCOCCOCCOCCOCCOS(=O)(=O)c3ccc(C)cc3)c(C)c2)cc2ccccc12 [Me-M1_8] | 38.2
